Assay results from patent publication US10207982B2, “Solid forms of desvenlafaxine” (ALPARIS, S.A. DE C.V., priority 2016, dated 2019).

Key:
[1] = Thermogravimetric analysis (TGA/DSC) of crystalline NSF; assay type: physicochemical
Procedure: The compound was observed as stable until 190° C., the temperature at which decomposition starts to occur.
The crystalline NSF of DSV:2,4-DHB was also characterized by X-ray powder diffraction (see FIG. 10), as well as thermogravimetric analysis (TGA/DSC) (see FIG. 11).

[2] = Comparative dissolution profiles of five solid phases; assay type: physicochemical; design: Dissolution rate constant k: unit not given here; settings: for Dissolution rate relative to the other shown phases: pH 1.2, 4.5 and 6.8; for Dissolution rate constant k: 37° C., 50 rpm
Procedure: FIG. 14. Dissolution profile in HCl solution (pH 1.2, 37° C., 50 rpm, n=3, ±SD) of the new crystalline solid phase of desvenlafaxine-3,4-dihydroxybenzoic acid (crystalline DSV:3,4-DHB), and comparison with the new amorphous solid phase of desvenlafaxine-3,4-dihydroxybenzoic acid (amorphous DSV:3,4-DHB), the new crystalline solid phase of desvenlafaxine-2,4-dihydroxybenzoic acid (crystalline DSV:2,4-DHB), desvenlafaxine (DSV), and desvenlafaxine succinate (DSV succinate). FIG. 15. Dissolution profile in acetate buffer (pH 4.5, 37° C., 50 rpm, n=3, ±SD) of the new crystalline solid phase of desvenlafaxine-3,4-dihidroxibenzoic acid (crystalline DSV:3,4-DHB), and comparison with the new amorphous solid phase of desvenlafaxine-3,4-dihydroxybenzoic acid (amorphous DSV:3,4-DHB), the new crystalline solid phase of desvenlafaxine-2,4-dihydroxybenzoic acid (crystalline DSV:2,4-DHB), desvenlafaxine (DSV), and desvenlafaxine succinate (DSV succinate). FIG. 16. Dissolution profile in phosphate buffer (pH 6.8, 37° C., 50 rpm, n=3, ±SD) of the new crystalline solid phase of desvenlafaxine-3,4-dihydroxybenzoic acid (crystalline DSV:3,4-DHB), and comparison with the new amorphous solid phase of desvenlafaxine-3,4-dihydroxybenzoic acid (amorphous DSV:3,4-DHB), the new crystalline solid phase of desvenlafaxine-2,4-dihydroxybenzoic acid (crystalline DSV:2,4-DHB), desvenlafaxine (DSV), and desvenlafaxine succinate (DSV succinate). A comparative test was carried out for the dissolution profiles at pH 1.2, 4.5 and 6.8 for the new crystalline phase DSV:3,4-DHB with respect to the amorphous NSF with the same co-former, the crystalline NSF with 2,4-dihydroxybenzoic acid, as well as desvenlafaxine base and the commercial salt (desvenlafaxine succinate).

[3] = Dissolution rate test in Wood apparatus, amorphous NSF; assay type: physicochemical; settings: for Dissolution Rate Constants: 150 mg tablets, 37° C., 50 rpm; for Dissolution rate as compared to the neutral DSV: FIGS. 4A-4I, different pH values; for Difference in dissolution rate between dissolution media: pH 1.2 versus pH 6.8
Procedure: The dissolution rate tests were performed in aqueous media, in a Wood apparatus with 150 mg tablets at 37° C. and 50 rpm in different dissolution media, as shown in Tables 2 and 3.

[4] = Indicative physical stability test (X-ray powder diffraction); assay type: physicochemical; settings: 40° C., 75% humidity, 30 days
Procedure: The amorphous NSF obtained from DSV:3-HB, DSV:3,4-DHB and DSV:3,4,5-THB were subjected to physical stability tests, wherein the NSF were subjected to temperatures of 45 and 50° C. in dry conditions (no humidity), and to 40° C., 75% humidity for 30 days.

[5] = Intrinsic dissolution of the crystalline NSF DSV:3,4-DHB; assay type: physicochemical
Procedure: Dissolution profiles were assessed for the crystalline NSF of DSV:3,4-DHB. The rate constant values are grouped in Table 6.

[6] = assay type: physicochemical
Description: Solubility tests could not be determined because the amorphous NSF obtained are very soluble and a large amount is required to saturate the solution.

Row | SMILES | Stable until, temperature at which decomposition starts [1] | Quotient (kNSF/kDSV) ([2]; pH 1.2) | Dissolution rate relative to the other shown phases [2] | Dissolution rate constant k ([2]; pH 1.2, HCl solution) | Quotient (kNSF/kDSV) ([2]; pH 4.5) | Dissolution rate constant k ([2]; pH 4.5, acetate buffer) | Quotient (kNSF/kDSV) ([2]; pH 6.8) | Dissolution rate constant k ([2]; pH 6.8, phosphate buffer) | Dissolution Rate Constants ([3]; pH 1.2) [mg/cm^2 · min] | Dissolution Rate Constants ([3]; pH 4.5) [mg/cm^2 · min] | Dissolution Rate Constants ([3]; pH 6.8) [mg/cm^2 · min] | Dissolution Rate Constants ([3]; water) [mg/cm^2 · min] | Dissolution rate as compared to the neutral DSV [3] | Difference in dissolution rate between dissolution media [3] | Physical stability [4] | Intrinsic dissolution rate constant k ([5]; pH 1.2) [mg/cm2 · min] | Intrinsic dissolution rate constant k ([5]; pH 4.5) [mg/cm2 · min] | Intrinsic dissolution rate constant k ([5]; pH 6.8) [mg/cm2 · min] | Solubility [6]
1 | CN(C)CC(c1ccc(O)cc1)C1(O)CCCCC1.O=C(O)c1ccc(O)cc1O (centres unmarked) [Crystalline DSV:2,4-DHB, desvenlafaxine-2,4-dihydroxybenzoic acid] | about 150 °C | 0.79 | lower dissolution rate than the commercial salt (succinate) and any of the other shown phases | 1.07 | 0.94 | 0.35 | 0.71 | 0.23 |  |  |  |  |  |  |  |  |  |  | 
2 | CN(C)CC(c1ccc(O)cc1)C1(O)CCCCC1.O=C(O)c1cccc(O)c1 (centres unmarked) [DSV:3-HB, desvenlafaxine-3-hydroxybenzoic acid] |  |  |  |  |  |  |  |  | 5.8 | 6.1 | 5.4 | 3.8 |  |  |  |  |  |  | 
3 | CN(C)CC(c1ccc(O)cc1)C1(O)CCCCC1.O=C(O)c1ccc(O)c(O)c1 (centres unmarked) [Amorphous DSV:3,4-DHB, desvenlafaxine-3,4-dihydroxybenzoic acid] |  | 5.0 | the higher dissolution rate | 6.69 | 18.4 | 6.81 | 17.0 | 5.45 | 4.4 | 5.0 | 5.7 | 2.3 | higher dissolution rate | lower or almost null difference | only possible to characterize |  |  |  | 
4 | CN(C)CC(c1ccc(O)cc1)C1(O)CCCCC1 (centres unmarked) [DSV-Succinate, desvenlafaxine succinate, reference compound] |  | 2.1 |  |  | 6.9 |  | 10.0 |  |  |  |  |  |  |  |  |  |  |  | 
5 | CN(C)CC(c1ccc(O)cc1)C1(O)CCCCC1.O=C(O)c1ccc(O)c(O)c1 (centres unmarked) [Crystalline DSV:3,4-DHB, 3,4-dihydroxybenzoate salt of anhydrous desvenlafaxine] | 190 °C | 1.8 |  | 2.47 | 5.9 | 2.19 | 4.8 | 1.54 |  |  |  |  |  |  |  | 2.48 | 2.19 | 1.43 | 
6 | CN(C)CC(c1ccc(O)cc1)C1(O)CCCCC1.O=C(O)c1cc(O)c(O)c(O)c1 (centres unmarked) [DSV:3,4,5-THB, desvenlafaxine-3,4,5-trihydroxybenzoic acid] |  |  |  |  |  |  |  |  | 5.4 | 6.1 | 9.0 | 1.6 | higher dissolution rate |  |  |  |  |  | the solution did not become saturated
7 | CN(C)CC(c1ccc(O)cc1)C1(O)CCCCC1 (racemic) [DSV, (±)-1-[2-(dimethylamino)-1-(4-hydroxyphenyl)ethyl]cyclohexanol, reference compound] |  |  |  |  |  |  |  |  | 6.9 | 1.2 | 0.5 | 0.0 |  | 14 times higher |  |  |  |  | 
